# Measured values as given in paper PMC12810539, “EGFR-targeted gadolinium contrast agents for enhanced molecular magnetic resonance imaging of tumors” (The Journal of Biological Chemistry, 2025).
# Key:
# [1] = test system: MDA-MB-231 and U138 MG tumor xenografts; assay: In vivo MR imaging of tumor xenografts; design: species or system SCID mice; details: i.v. 50 μM Gd/kg, 7 T T1-weighted MRI, n = 6; conjugates in MDA-MB-231 xenografts; imaged up to 4 h
# Method: The 6- to 8-week-old male non-obese diabetic (NOD)/severe-combined immunodeficient (SCID) mice were used to establish MDA-MB-231 (EGFR-overexpressing) and U138 MG (non-EGFR-overexpressing) xenograft models ([35]). The mice were obtained from the Experimental Animal Center of Tongji Medical College, Huazhong University of Science and Technology, and all the experimental procedures involving animals were further approved by the Animal Care and Use Committee of Huazhong University of Science and Technology. The mice were housed separately in polycarbonate cages and provided with food and water. Tumors were grown under the skin by s.c. injection of 1 × 10^6-3 × 10^6 cells. The mice were randomized into groups for the biodistribution assay and MR imaging in vivo when the xenografts reached 5 to 7 mm in diameter. […]
# Tumor-bearing SCID mice were randomly grouped and scanned with a Bruker Biospec 7 T MRI scanner (Bruker Corp.) with a volume radio frequency (RF) coil. […] The parameters of the 2D T1-weighted gradient echo sequence were TR/TE = 151.2/1.9 ms, FOV = 3.0 cm, slice thickness = 1.2 mm, slice number = 20, average = 1, flip angle = 80°, and matrix = 128 × 128 ([28], [37]).The CNR were calculated with standard methods (CNR = [Stumor-Sbackground]/SDnoise).
# [2] = In vivo biodistribution: plasma, kidney, liver, heart (ICP-MS); design: species or system SCID mice; details: for Gd content in the kidneys / plasma Gd level over time: tumor-bearing SCID mice, ICP-MS; for Gd content in the kidneys: mean ± SD, 6 animals per group; for plasma Gd level over time: 0.25-48 h
# Method: (§1) The 6- to 8-week-old male non-obese diabetic (NOD)/severe-combined immunodeficient (SCID) mice were used to establish MDA-MB-231 (EGFR-overexpressing) and U138 MG (non-EGFR-overexpressing) xenograft models ([35]). The mice were obtained from the Experimental Animal Center of Tongji Medical College, Huazhong University of Science and Technology, and all the experimental procedures involving animals were further approved by the Animal Care and Use Committee of Huazhong University of Science and Technology. The mice were housed separately in polycarbonate cages and provided with food and water. Tumors were grown under the skin by s.c. injection of 1 × 10^6-3 × 10^6 cells. The mice were randomized into groups for the biodistribution assay and MR imaging in vivo when the xenografts reached 5 to 7 mm in diameter. All procedures were approved by the Institutional Animal Care and Use Committee of Huazhong University of Science and Technology (approval no.270193).
# (§2) The tumor-bearing SCID mice were randomly divided into groups, with 6 animals in each group, an injected via the tail vein with 50 μM Gd/kg EBP-Gd-DO3A, EBP-(Gd-DO3A)3, or Gadovist. At the selected time points (0.25, 0.5, 1, 2, 4, 8, 24, and 48 h) after injection, blood was collected and centrifuged to separate the plasma. Then, organ and tissue samples, including the kidneys, liver, heart, and tumor, were collected and weighed. The tissue samples were liquefied for 1 week and then transferred into centrifuge tubes and centrifuged at 14,000 rpm for 5 min. The resulting supernatants were diluted tenfold with deionized water and centrifuged again under the same conditions. The Gd concentration in the samples was measured by ICP-MS ([36]).
# [3] = Longitudinal and transverse relaxivity at 3T MRI; type: physicochemical; details: in water, 37 °C, slope of 1/T1 versus Gd concentration (0-0.5 mM)
# Method: The EBP-Gd-DO3A and EBP-(Gd-DO3A)3 conjugates were confirmed by matrix-assisted laser desorption/ionization time-of-flight (MALDI-TOF) mass spectrometry (Applied Biosystems) in a linear mode with 2,5-dihydroxybenzoic acid (2,5-DHB) as the matrix. The Gd content in the conjugates was determined by ICP-MS (Thermo Fisher Scientific) ([31]). […] Serial dilutions of EBP-Gd-DO3A, EBP-(Gd-DO3A)3, and Gadovist were prepared in water at Gd concentrations of 0.5, 0.25, 0.125, 0.0625, 0.03125, and 0 mM. The relaxivity measurements were performed on a 3T MRI scanner (Trio, Siemens). T1 was measured using an inversion recovery method with a variable inversion time ranging from 50 to 1750 ms. T2 was measured using a Carr-Purcell-Meiboom-Gill sequence with 500 echoes collected. The relaxivities (r1 and r2) of the agents were calculated from the slopes of the plots of 1/T1 and 1/T2 versus the Gd concentrations.
# [4] = test system: U138 MG tumor xenografts; assay: In vivo biodistribution: tumor Gd content (ICP-MS); details: SCID mice, mean ± SD
# Method: as §1, §2
# [5] = 0.5 h after single i.v. 50 μM Gd/kg
# [6] = 2 h after single i.v. 50 μM Gd/kg
# [7] = 24 h after single i.v. 50 μM Gd/kg
Compound,time that tumor contrast enhancement persisted after injection [1] [h],"Gd content in the kidneys [2, 5] [nM/g tissue]","Gd content in the kidneys [2, 6] [nM/g tissue]","Gd content in the kidneys [2, 7] [nM/g tissue]","Gd retention in the liver and heart ([2]; single i.v. 50 μM Gd/kg, compared with EBP-Gd-DO3A and EBP-(Gd-DO3A)3, ICP-MS)",plasma Gd level over time ([2]; single i.v. 50 μM Gd/kg),longitudinal relaxivity (r1) [3] [mM⁻¹ s⁻¹],"Gd content in the U138 MG tumors [4, 5] [nM/g tissue]","Gd content in the U138 MG tumors [4, 6] [nM/g tissue]","Gd content in the U138 MG tumors [4, 7] [nM/g tissue]",Gd content in the kidneys ([2]; 4 h after single i.v. 50 μM Gd/kg) [nM/g tissue],Gd content in the kidneys ([2]; 8 h after single i.v. 50 μM Gd/kg) [nM/g tissue]
"O=C([O-])CN1CCN(CC(=O)[O-])CCN([C@H](CO)[C@H](O)CO)CCN(CC(=O)[O-])CC1.[Gd+3] (racemic) [Gadovist, reference compound]",2,10.70 ± 2.10,8.73 ± 1.37,1.58 ± 0.72,relatively high at all time points,rapidly disappeared from circulation,3.14,8.70 ± 1.24,5.76 ± 0.45,0.90 ± 0.23,–,–
CMYIEALDKYAC [EBP-Gd-DO3A],–,–,10.76 ± 1.14,2.52 ± 0.68,–,maintained at a high level for a much longer time,5.08,–,–,–,8.25 ± 0.75,–
CMYIEALDKYAC [EBP-(Gd-DO3A)3],–,–,12.40 ± 1.60,3.50 ± 1.40,–,maintained at a high level for a much longer time,7.24,–,–,–,–,8.12 ± 1.28
